Measurements: patent US12077503B2, “Substituted cyclic amides and their use as herbicides” (FMC CORPORATION, priority 2015, dated 2024)

What was measured:
Format in all cases: in vivo
[1] = tested on: barnyardgrass (Echinochloa crus-galli); assay: Test G Pre-Emergence Protocol; settings: Echinochloa crus-galli, pre-emergence, 312 h, evaluated after 13 days; for pest or weed control at 15.625 g/ha: 15.625 g ai/ha; for pest or weed control at 15.625 g/ha / pest or weed control at 250 g/ha: read-out: Barnyardgrass damage rating (100=total damage to plant; 0=no damage to plant); for pest or weed control at 62.5 g/ha: 62.5 g ai/ha, 100=total damage to plant, 0=no damage to plant, read-out: Barnyardgrass damage rating; for pest or weed control at 250 g/ha: 250 g ai/ha
In short: (§1)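 Glasshouse pre-emergence test: soil-sown seeds, sprayed after 1 d at 15.625, 62.5 or 250 g/ha. Conditions 24/16° C day/night, 14 h light, 65% humidity, watering twice daily. Rating 13 d post-spray (100 = total damage).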

[2] = tested on: corn (Zea mays); assay: Test G Pre-Emergence Protocol; settings: Zea mays, pre-emergence, 312 h, evaluated after 13 days; for plant injury at 15.625 g/ha: 15.625 g ai/ha; for plant injury at 15.625 g/ha / plant injury at 250 g/ha: read-out: Corn damage rating (100=total damage to plant; 0=no damage to plant); for plant injury at 62.5 g/ha: 62.5 g ai/ha, 100=total damage to plant, 0=no damage to plant, read-out: Corn damage rating; for plant injury at 250 g/ha: 250 g ai/ha
In short: as §1

[3] = tested on: giant foxtail (Setaria faberi); assay: Test G Pre-Emergence Protocol; settings: Setaria faberi, pre-emergence, 312 h, evaluated after 13 days; for pest or weed control at 15.625 g/ha: 15.625 g ai/ha; for pest or weed control at 15.625 g/ha / pest or weed control at 250 g/ha: read-out: Foxtail, Giant damage rating (100=total damage to plant; 0=no damage to plant); for pest or weed control at 62.5 g/ha: 62.5 g ai/ha, 100=total damage to plant, 0=no damage to plant, read-out: Foxtail, Giant damage rating; for pest or weed control at 250 g/ha: 250 g ai/ha
In short: as §1

[4] = tested on: ivy-leaved morning glory (Ipomoea hederacea); assay: Test G Pre-Emergence Protocol; settings: Ipomoea, pre-emergence, 312 h, evaluated after 13 days; for pest or weed control at 15.625 g/ha: 15.625 g ai/ha; for pest or weed control at 15.625 g/ha / pest or weed control at 250 g/ha: read-out: Morningglory, Ivy-leaved damage rating (100=total damage to plant; 0=no damage to plant); for pest or weed control at 62.5 g/ha: 62.5 g ai/ha, 100=total damage to plant, 0=no damage to plant, read-out: Morningglory, Ivy-leaved damage rating; for pest or weed control at 250 g/ha: 250 g ai/ha
In short: as §1

[5] = tested on: redroot pigweed (Amaranthus retroflexus); assay: Test G Pre-Emergence Protocol; settings: Amaranthus retroflexus, pre-emergence, 312 h, evaluated after 13 days; for pest or weed control at 15.625 g/ha: 15.625 g ai/ha; for pest or weed control at 15.625 g/ha / pest or weed control at 250 g/ha: read-out: Pigweed, Redroot damage rating (100=total damage to plant; 0=no damage to plant); for pest or weed control at 62.5 g/ha: 62.5 g ai/ha, 100=total damage to plant, 0=no damage to plant, read-out: Pigweed, Redroot damage rating; for pest or weed control at 250 g/ha: 250 g ai/ha
In short: as §1

[6] = tested on: velvetleaf (Abutilon theophrasti); assay: Test G Pre-Emergence Protocol; settings: Abutilon theophrasti, pre-emergence, 312 h, evaluated after 13 days; for pest or weed control at 15.625 g/ha: 15.625 g ai/ha; for pest or weed control at 15.625 g/ha / pest or weed control at 250 g/ha: read-out: Velvetleaf damage rating (100=total damage to plant; 0=no damage to plant); for pest or weed control at 62.5 g/ha: 62.5 g ai/ha, 100=total damage to plant, 0=no damage to plant, read-out: Velvetleaf damage rating; for pest or weed control at 250 g/ha: 250 g ai/ha
In short: as §1

[7] = tested on: barnyardgrass (Echinochloa crus-galli); assay: Test G Post-Emergence Protocol; settings: Echinochloa crus-galli, post-emergence, 312 h, read-out: Barnyardgrass damage rating; for pest or weed control at 15.625 g/ha: 15.625 g ai/ha, evaluated after 13 days (100=total damage to plant; 0=no damage to plant); for pest or weed control at 62.5 g/ha: 62.5 g ai/ha; for pest or weed control at 62.5 g/ha / pest or weed control at 250 g/ha: evaluated after 13 days, 100=total damage to plant, 0=no damage to plant; for pest or weed control at 250 g/ha: 250 g ai/ha
In short: (§2)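 Foliar application was made 8 days after sowing, using an aqueous spray of the active in acetone/water (50:50) with 0.5% Tween 20, at doses of 15.625, 62.5 or 250 g/ha. Injury was assessed 13 days later, where 100 meant the plant was fully damaged.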

[8] = tested on: corn (Zea mays); assay: Test G Post-Emergence Protocol; settings: Zea mays, post-emergence, 312 h, read-out: Corn damage rating; for plant injury at 15.625 g/ha: 15.625 g ai/ha, evaluated after 13 days (100=total damage to plant; 0=no damage to plant); for plant injury at 62.5 g/ha: 62.5 g ai/ha; for plant injury at 62.5 g/ha / plant injury at 250 g/ha: evaluated after 13 days, 100=total damage to plant, 0=no damage to plant; for plant injury at 250 g/ha: 250 g ai/ha
In short: as §2

[9] = tested on: giant foxtail (Setaria faberi); assay: Test G Post-Emergence Protocol; settings: Setaria faberi, post-emergence, 312 h, read-out: Foxtail, Giant damage rating; for pest or weed control at 15.625 g/ha: 15.625 g ai/ha, evaluated after 13 days (100=total damage to plant; 0=no damage to plant); for pest or weed control at 62.5 g/ha: 62.5 g ai/ha; for pest or weed control at 62.5 g/ha / pest or weed control at 250 g/ha: evaluated after 13 days, 100=total damage to plant, 0=no damage to plant; for pest or weed control at 250 g/ha: 250 g ai/ha
In short: as §2

[10] = tested on: ivy-leaved morning glory (Ipomoea hederacea); assay: Test G Post-Emergence Protocol; settings: Ipomoea, post-emergence, 312 h, read-out: Morningglory, Ivy-leaved damage rating; for pest or weed control at 15.625 g/ha: 15.625 g ai/ha, evaluated after 13 days (100=total damage to plant; 0=no damage to plant); for pest or weed control at 62.5 g/ha: 62.5 g ai/ha; for pest or weed control at 62.5 g/ha / pest or weed control at 250 g/ha: evaluated after 13 days, 100=total damage to plant, 0=no damage to plant; for pest or weed control at 250 g/ha: 250 g ai/ha
In short: as §2

[11] = tested on: redroot pigweed (Amaranthus retroflexus); assay: Test G Post-Emergence Protocol; settings: Amaranthus retroflexus, post-emergence, 312 h, read-out: Pigweed, Redroot damage rating; for pest or weed control at 15.625 g/ha: 15.625 g ai/ha, evaluated after 13 days (100=total damage to plant; 0=no damage to plant); for pest or weed control at 62.5 g/ha: 62.5 g ai/ha; for pest or weed control at 62.5 g/ha / pest or weed control at 250 g/ha: evaluated after 13 days, 100=total damage to plant, 0=no damage to plant; for pest or weed control at 250 g/ha: 250 g ai/ha
In short: as §2

[12] = tested on: velvetleaf (Abutilon theophrasti); assay: Test G Post-Emergence Protocol; settings: Abutilon theophrasti, post-emergence, 312 h, read-out: Velvetleaf damage rating; for pest or weed control at 15.625 g/ha: 15.625 g ai/ha, evaluated after 13 days (100=total damage to plant; 0=no damage to plant); for pest or weed control at 62.5 g/ha: 62.5 g ai/ha; for pest or weed control at 62.5 g/ha / pest or weed control at 250 g/ha: evaluated after 13 days, 100=total damage to plant, 0=no damage to plant; for pest or weed control at 250 g/ha: 250 g ai/ha
In short: as §2

Compound | pest or weed control at 15.625 g/ha [1] | pest or weed control at 62.5 g/ha [1] | pest or weed control at 250 g/ha [1] | plant injury at 15.625 g/ha [2] | plant injury at 62.5 g/ha [2] | plant injury at 250 g/ha [2] | pest or weed control at 15.625 g/ha [3] | pest or weed control at 62.5 g/ha [3] | pest or weed control at 250 g/ha [3] | pest or weed control at 62.5 g/ha [4] | pest or weed control at 250 g/ha [4] | pest or weed control at 15.625 g/ha [5] | pest or weed control at 62.5 g/ha [5] | pest or weed control at 250 g/ha [5] | pest or weed control at 15.625 g/ha [6] | pest or weed control at 62.5 g/ha [6] | pest or weed control at 250 g/ha [6] | pest or weed control at 15.625 g/ha [7] | pest or weed control at 62.5 g/ha [7] | pest or weed control at 250 g/ha [7] | further results
COc1cc(C2CN(C)C(=O)C2C(=O)Nc2cccc(F)c2F)cc(C)c1C (centres unmarked) [Compound 1713] | 30% | 70% | 90% | 10% | 20% | 90% | 50% | 70% | 90% | 0% | 0% | 0% | 0% | 0% | 0% | 0% | 0% | 10% | 80% | 80% | pest or weed control at 15.625 g/ha [4]: 0%; plant injury at 15.625 g/ha [8]: 0%; plant injury at 62.5 g/ha [8]: 50%; plant injury at 250 g/ha [8]: 80%; pest or weed control at 15.625 g/ha [9]: 60%; pest or weed control at 62.5 g/ha [9]: 80%; pest or weed control at 250 g/ha [9]: 80%; pest or weed control at 15.625 g/ha [10]: 20%; pest or weed control at 62.5 g/ha [10]: 60%; pest or weed control at 250 g/ha [10]: 70%; pest or weed control at 15.625 g/ha [11]: 0%; pest or weed control at 62.5 g/ha [11]: 0%; pest or weed control at 250 g/ha [11]: 0%; pest or weed control at 15.625 g/ha [12]: 0%; pest or weed control at 62.5 g/ha [12]: 0%; pest or weed control at 250 g/ha [12]: 20%
CCOc1ccc(C2CN(C)C(=O)C2C(=O)Nc2cccc(F)c2F)cc1F (centres unmarked) [Compound 1717] | 0% | 40% | 90% | 0% | 0% | 0% | 60% | 90% | 90% | 0% | 0% | 0% | 10% | 20% | 0% | 10% | 0% | 0% | 60% | 70% | pest or weed control at 15.625 g/ha [4]: 0%; plant injury at 15.625 g/ha [8]: 0%; plant injury at 62.5 g/ha [8]: 0%; plant injury at 250 g/ha [8]: 10%; pest or weed control at 15.625 g/ha [9]: 30%; pest or weed control at 62.5 g/ha [9]: 70%; pest or weed control at 250 g/ha [9]: 80%; pest or weed control at 15.625 g/ha [10]: 0%; pest or weed control at 62.5 g/ha [10]: 0%; pest or weed control at 250 g/ha [10]: 0%; pest or weed control at 15.625 g/ha [11]: 0%; pest or weed control at 62.5 g/ha [11]: 0%; pest or weed control at 250 g/ha [11]: 0%; pest or weed control at 15.625 g/ha [12]: 0%; pest or weed control at 62.5 g/ha [12]: 0%; pest or weed control at 250 g/ha [12]: 0%
CCOc1cc(C2CN(C)C(=O)C2C(=O)Nc2cccc(F)c2F)ccc1OC (centres unmarked) [Compound 1719] | 30% | 70% | 90% | 0% | 10% | 60% | 70% | 90% | 90% | 0% | 0% | 0% | 0% | 20% | 0% | 0% | 0% | 0% | 60% | 80% | plant injury at 15.625 g/ha [8]: 0%; plant injury at 62.5 g/ha [8]: 0%; plant injury at 250 g/ha [8]: 60%; pest or weed control at 15.625 g/ha [9]: 60%; pest or weed control at 62.5 g/ha [9]: 80%; pest or weed control at 250 g/ha [9]: 80%; pest or weed control at 15.625 g/ha [10]: 0%; pest or weed control at 62.5 g/ha [10]: 10%; pest or weed control at 250 g/ha [10]: 20%; pest or weed control at 15.625 g/ha [11]: 0%; pest or weed control at 62.5 g/ha [11]: 0%; pest or weed control at 250 g/ha [11]: 0%; pest or weed control at 15.625 g/ha [12]: 0%; pest or weed control at 62.5 g/ha [12]: 0%; pest or weed control at 250 g/ha [12]: 0%
